Test [1] in a line: Biological activity using the frog skin (Rana pipiens) assay. The value indicates prolonged biological activity. The format is functional.
In a further test the test system is Anolis carolinensis. The test can be described thus: Biological activity using the lizard skin (Anolis carolinensis) assay. The value indicates prolonged biological activity. The test is classed as functional, organism-based.
Another test addresses Mu-type opioid receptor (Homo sapiens, UniProt P35372). The test is described as follows: Binding affinity towards Opioid receptor mu 1 was determined.
Test [2] has as its target T1, Cholecystokinin receptor type A (Homo sapiens, UniProt P32238).
T1 sequence (P32238 whole entry): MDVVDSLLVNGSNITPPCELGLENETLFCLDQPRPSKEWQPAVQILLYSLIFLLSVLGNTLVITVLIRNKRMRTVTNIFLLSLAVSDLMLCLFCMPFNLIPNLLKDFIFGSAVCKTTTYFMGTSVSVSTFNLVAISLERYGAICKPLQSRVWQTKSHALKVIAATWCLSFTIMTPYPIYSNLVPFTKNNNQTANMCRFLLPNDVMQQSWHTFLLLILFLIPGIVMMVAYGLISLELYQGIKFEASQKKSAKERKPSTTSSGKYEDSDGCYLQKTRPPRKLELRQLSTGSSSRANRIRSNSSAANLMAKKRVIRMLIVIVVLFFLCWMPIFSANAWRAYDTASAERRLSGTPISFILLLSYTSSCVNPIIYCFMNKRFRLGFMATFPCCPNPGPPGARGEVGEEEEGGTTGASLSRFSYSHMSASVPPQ
The test is described as follows: Binding affinity towards Cholecystokinin type A receptor (CCK-A) receptor was determined.

In test [3] the target is Delta-type opioid receptor (Homo sapiens, UniProt P41143). The test can be described thus: Binding affinity towards Opioid receptor delta 1 was determined.
Chain of Delta-type opioid receptor (P41143 whole entry): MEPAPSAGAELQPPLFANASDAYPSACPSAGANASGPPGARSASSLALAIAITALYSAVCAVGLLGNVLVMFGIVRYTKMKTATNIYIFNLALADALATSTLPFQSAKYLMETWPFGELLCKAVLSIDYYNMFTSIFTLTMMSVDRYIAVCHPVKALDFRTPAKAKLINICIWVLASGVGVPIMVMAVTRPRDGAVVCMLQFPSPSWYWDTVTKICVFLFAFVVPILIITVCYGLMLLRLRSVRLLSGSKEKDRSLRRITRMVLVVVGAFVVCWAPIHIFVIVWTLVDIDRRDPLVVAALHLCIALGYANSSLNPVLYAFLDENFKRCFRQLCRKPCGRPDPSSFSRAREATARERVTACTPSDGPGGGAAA
The target of test [4] is T2, Gastrin/cholecystokinin type B receptor (Homo sapiens, UniProt P32239).
T2 sequence (P32239 whole entry): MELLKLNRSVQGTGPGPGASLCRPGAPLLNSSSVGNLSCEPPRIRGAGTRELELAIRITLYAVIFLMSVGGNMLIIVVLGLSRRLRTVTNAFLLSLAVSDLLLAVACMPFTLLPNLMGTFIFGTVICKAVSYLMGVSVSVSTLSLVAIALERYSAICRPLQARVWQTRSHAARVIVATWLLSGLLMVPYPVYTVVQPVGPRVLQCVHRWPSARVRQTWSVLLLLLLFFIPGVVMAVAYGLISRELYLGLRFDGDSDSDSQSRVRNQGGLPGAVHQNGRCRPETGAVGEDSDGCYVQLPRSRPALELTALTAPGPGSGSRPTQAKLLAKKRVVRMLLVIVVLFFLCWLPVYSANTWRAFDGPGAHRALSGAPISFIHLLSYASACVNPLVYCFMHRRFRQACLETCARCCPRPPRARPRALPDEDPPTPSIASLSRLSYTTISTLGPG
The test is described as follows: Binding affinity towards Cholecystokinin type B receptor (CCK-B) receptor was determined.

A short description of test [5]: Biological activity using the frog skin (Rana pipiens) assay. The value indicates no prolonged biological activity. The test is classed as functional.

Where a SMILES comes first, the peptide text is derived from it. [ ]: non-standard residue; d: D form. NMeNle = CCCC[C@H](NC)C(=O)O; dNle = CCCC[C@@H](N)C(=O)O

Chain of Mu-type opioid receptor (P35372 whole entry): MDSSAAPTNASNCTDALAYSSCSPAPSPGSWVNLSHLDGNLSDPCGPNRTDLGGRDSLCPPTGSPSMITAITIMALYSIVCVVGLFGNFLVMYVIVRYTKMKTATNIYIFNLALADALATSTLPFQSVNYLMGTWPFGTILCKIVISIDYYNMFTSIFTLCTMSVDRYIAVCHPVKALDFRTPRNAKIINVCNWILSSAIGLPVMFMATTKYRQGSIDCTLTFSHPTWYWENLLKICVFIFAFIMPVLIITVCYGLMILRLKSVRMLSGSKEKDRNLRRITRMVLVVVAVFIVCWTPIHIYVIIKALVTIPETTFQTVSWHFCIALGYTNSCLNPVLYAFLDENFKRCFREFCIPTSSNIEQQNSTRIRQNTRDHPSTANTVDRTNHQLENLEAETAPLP

With `CCCC[C@H](NC(C)=O)C(=O)N[C@H]1CCC(=O)NCCCC[C@@H](C(=O)NCC(=O)N2CCC[C@H]2C(=O)N[C@H](C(N)=O)C(C)C)NC(=O)[C@H](Cc2c[nH]c3ccccc23)NC(=O)[C@H](CCCN=C(N)N)NC(=O)[C@@H](Cc2ccccc2)NC(=O)[C@H](Cc2c[nH]cn2)NC1=O`, the concentration giving a half-maximal response (EC50) (commonly the concentration that produces a half-maximal response) in test [1] was found to be 0.5 nM; in the test with Anolis carolinensis it was 0.17 nM.

For the molecule `CCCC[C@@H](C(=O)N[C@@H](CC(=O)O)C(=O)N[C@@H](Cc1ccccc1)C(N)=O)N(C)C(=O)[C@H](Cc1c[nH]c2ccccc12)NC(=O)CNC(=O)CNC(=O)[C@@H](N)Cc1ccc(O)cc1` (H-YGGW[NMeNle]DF-NH2), the Ki (commonly a measure of affinity in units of concentration, obtained from inhibition or displacement) stood at 610 nM on Mu-type opioid receptor, 870 nM in test [2], 2000 nM in test [3] and 1.3 nM in test [4].

As to `CCCC[C@H](NC(C)=O)C(=O)N[C@H]1CC(=O)NCCCC[C@@H](C(N)=O)NC(=O)[C@@H]([C@@H](C)c2c[nH]c3ccccc23)NC(=O)[C@H](CCCN=C(N)N)NC(=O)[C@@H](Cc2ccccc2)NC(=O)[C@H](Cc2c[nH]cn2)NC1=O`, the concentration for a half-maximal effect (EC50) in test [1] was 0.06 nM; with Anolis carolinensis, 1.43 nM.

Take `CCCC[C@H](NC(C)=O)C(=O)N[C@H]1CC(=O)NCCCC[C@@H](C(N)=O)NC(=O)[C@H]([C@@H](C)c2c[nH]c3ccccc23)NC(=O)[C@H](CCCN=C(N)N)NC(=O)[C@@H](Cc2ccccc2)NC(=O)[C@H](Cc2c[nH]cn2)NC1=O`: the EC50 in test [5] turned out to be 0.44 nM; in the test on Anolis carolinensis, 1 nM.

Regarding `CCCC[C@@H](NC(=O)[C@@H](N)Cc1ccc(O)cc1)C(=O)NCC(=O)N[C@@H](Cc1c[nH]c2ccccc12)C(=O)N(C)[C@@H](CCCC)C(=O)N[C@@H](CC(=O)O)C(=O)N[C@@H](Cc1ccccc1)C(N)=O` (H-Y[dNle]GW[NMeNle]DF-NH2), the Ki at Mu-type opioid receptor is 25 nM; in test [2] it was 3900 nM; in test [3], 1.6 nM; in test [4], 0.6 nM.

On to `CCCC[C@H](NC(C)=O)C(=O)N[C@H]1CC(=O)NCCCC[C@@H](C(=O)NCC(=O)N2CCC[C@H]2C(=O)N[C@H](C(N)=O)C(C)C)NC(=O)[C@H](Cc2c[nH]c3ccccc23)NC(=O)[C@H](CCCN=C(N)N)NC(=O)[C@@H](Cc2ccccc2)NC(=O)[C@H](Cc2c[nH]cn2)NC1=O`, for which the figures for the EC50 (in test [1]; in the test on Anolis carolinensis) were 0.5 nM and 0.01 nM, respectively.

For `CCCC[C@@H](C(=O)N[C@@H](CC(=O)O)C(=O)N[C@@H](Cc1ccccc1)C(N)=O)N(C)C(=O)[C@@H](Cc1c[nH]c2ccccc12)NC(=O)CNC(=O)[C@@H](C)NC(=O)[C@@H](N)Cc1ccc(O)cc1` (H-Y[dA]G[dW][NMeNle]DF-NH2), the Ki at Mu-type opioid receptor is 20 nM; in test [2], 32 nM; in test [3], 1.9 nM; in test [4], 1.3 nM.

In the case of `CCCC[C@H](NC(C)=O)C(=O)N[C@H]1CC(=O)NCCCC[C@@H](C(N)=O)NC(=O)[C@@H]([C@H](C)c2c[nH]c3ccccc23)NC(=O)[C@H](CCCN=C(N)N)NC(=O)[C@@H](Cc2ccccc2)NC(=O)[C@H](Cc2c[nH]cn2)NC1=O`, the EC50 in test [1] is 0.33 nM; with Anolis carolinensis, 1 nM.

Regarding `CCCC[C@@H](C(=O)N[C@@H](CC(=O)O)C(=O)N[C@@H](Cc1ccccc1)C(N)=O)N(C)C(=O)[C@H](Cc1c[nH]c2ccccc12)NC(=O)[C@H](CCC(=O)O)NC(=O)[C@@H](Cc1ccccc1)NC(=O)[C@@H](N)Cc1ccc(O)cc1`, the Ki came to 136 nM at Mu-type opioid receptor, 10000 nM in test [2], 6.8 nM in test [3] and 2.1 nM in test [4].

`CCCC[C@@H](C(=O)N[C@@H](CC(=O)O)C(=O)N[C@@H](Cc1ccccc1)C(N)=O)N(C)C(=O)[C@@H](Cc1c[nH]c2ccccc12)NC(=O)CNC(=O)[C@@H](Cc1ccccc1)NC(=O)[C@@H](N)Cc1ccc(O)cc1` (H-Y[dF]G[dW][NMeNle]DF-NH2): the figures for the Ki (at Mu-type opioid receptor; in test [3]; in test [4]) were 5.7 nM, 0.5 nM and 1.6 nM, respectively.

In the case of `CCCC[C@@H](C(=O)N[C@@H](CC(=O)O)C(=O)N[C@@H](Cc1ccccc1)C(N)=O)N(C)C(=O)[C@H](Cc1c[nH]c2ccccc12)NC(=O)CNC(=O)[C@@H](Cc1ccccc1)NC(=O)[C@H](Cc1ccc(O)cc1)NC(=O)[C@@H](N)CC(=O)O`, the values for the Ki (at Mu-type opioid receptor; in test [2]) were 5200 nM and 3330 nM, respectively.

The record behind these values is ChEMBL document CHEMBL1145107, “Peptide science: exploring the use of chemical principles and interdisciplinary collaboration for understanding life processes” (J Med Chem, 2003).
